This note sets out measurements from patent US12448388B2, “PRMT5 inhibitors and uses thereof” (Gilead Sciences, Inc., priority 2023, dated 2025).

Like-named read-outs stand apart in the source and are kept apart here.

In assay [1] the test system is HCT116 MTAP-deleted cell lines. The experiment in a line: Cell viability assay (CellTiter-Glo, 7 days), HCT116 MTAP-deleted. In kind it is cell-based. Particulars: Homo sapiens, HCT-116, HCT116 MTAP-deleted, class symbols, read-out: CC50. A digest of the protocol:
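HCT116 MTAP-deleted and wild-type cells exposed to serially diluted compound for 7 days at 37 °C, 5% CO2. Viability read by CellTiter-Glo luminescence; CC50 derived per line, with selectivity comparing WT to MTAP-deleted, limited solubility can inflate values marked *.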
In general terms: Cellular ATP, detected with luciferase, serves as a proxy for viable cell number.

Assay [2] relates to Symmetric Di-methyl Arginine (SDMA) signal (PRMT5 inhibition) in HCT116 MTAP-deleted cells. The experiment in a line: Symmetric di-methyl arginine image-based high content screen assay (SDMA assay), HCT116 MTAP-deleted. In kind it is cell-based. To be noted: for EC50: Homo sapiens, HCT-116, HCT116 MTAP-deleted, class symbols. Put shortly:
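HCT116 WT and MTAP-deleted cells (800/well, RPMI 1640 + 10% FBS) treated with compound 3 days at 37 °C; formalin-fixed, stained with anti-SDMA antibody/Alexa 488 plus DAPI. Mean SDMA intensity per DAPI-defined cell imaged; EC50 from 4-parameter logistic fit.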

[3] abbreviates: HCT116 WT versus HCT116 MTAP-deleted.
Where [4] appears, read: HCT116 WT vs HCT116 MTAP-deleted.

Take `C[C@H]1CN(C(=O)c2cc3c(cc2F)nc(N)c2cncn23)[C@H]2c3cc(F)c(C4CC4)cc3C[C@H]2O1` [Ff-201, (4-amino-7-fluoroimidazo[1,5-a]quinoxalin-8-yl)((2S,4aS,9aR)-7-cyclopropyl-6-fluoro-2-methyl-2,3,9,9a-tetrahydroindeno[2,1-b][1,4]oxazin-4(4aH)-yl)methanone]: in assay [1] (cell viability), the CC50 is less than 100 nM. The EC50 selectivity in assay [2] (setting [3]) is listed as 58. The same compound came in with an EC50 in assay [2] of 1 to 5 nM.
For the compound `CN(C(=O)c1cc2c(cc1F)nc(N)c1cncn12)[C@@H]1COCc2cc(-c3cnn(C(F)(F)F)c3)ccc21` [Ff-279, (S)-4-amino-7-fluoro-N-methyl-N-(7-(1-(trifluoromethyl)-1H-pyrazol-4-yl)isochroman-4-yl)imidazo[1,5-a]quinoxaline-8-carboxamide], the CC50 in assay [1] (cell viability) is less than 100 nM. Moreover, in assay [2] (setting [3]), the EC50 selectivity was found to be 60. This compound showed an EC50 in assay [2] of no more than 1 nM.
In the case of `CN(C(=O)c1cc2c(cc1F)nc(N)c1cncn12)[C@@H]1COc2cc(C(F)(F)F)ccc21` [Ff-12, (S)-4-amino-7-fluoro-N-methyl-N-(6-(trifluoromethyl)-2,3-dihydrobenzofuran-3-yl)imidazo[1,5-a]quinoxaline-8-carboxamide], the cytotoxic concentration (CC50) in assay [1] (cell viability) is less than 100 nM. Besides, the EC50 selectivity in assay [2] (setting [3]) was determined as 196. The compound also gave an EC50 in assay [2] of no more than 1 nM.
For `Nc1nc2ccc(C(=O)N(Cc3ccc(C(F)(F)F)cn3)N3CCOCC3)cc2n2cncc12` [Fb-2, 4-amino-N-morpholino-N-((5-(trifluoromethyl)pyridin-2-yl)methyl)imidazo[1,5-a]quinoxaline-8-carboxamide], the CC50 in assay [1] (cell viability) was less than 100 nM. The compound further registered an EC50 selectivity in assay [2] (setting [3]) of 48. For the same compound, the half-maximal effective concentration (EC50) in assay [2] is 1 to 5 nM.
In the case of `Cc1ncn2c1c(N)nc1cnc(C(=O)N3CCC4(CC4)[C@@H]4Oc5cc(OC(F)(F)F)ccc5[C@@H]43)cc12` [Ff-617, (4-amino-3-methylimidazo[1,5-a]pyrido[3,4-e]pyrazin-8-yl)((4aS,9bS)-7-(trifluoromethoxy)-2,3,4a,9b-tetrahydro-1H-spiro[benzofuro[3,2-b]pyridine-4,1′-cyclopropan]-1-yl)methanone], the CC50 in assay [1] (cell viability assay) is less than 100 nM. The same compound gave an EC50 selectivity in assay [2] (setting [4]) of 274. Also, the EC50 in assay [2] lay in the range of 1 to 5 nM.
For the compound `CN(C(=O)c1cc2c(cc1F)nc(N)c1cncn12)[C@@H]1COc2cc(Cl)ccc21` [Ff-567, (S)-4-amino-N-(6-chloro-2,3-dihydrobenzofuran-3-yl)-7-fluoro-N-methylimidazo[1,5-a]quinoxaline-8-carboxamide], the CC50 in assay [1] (cell viability assay) is less than 100 nM. The compound also showed an EC50 selectivity in assay [2] (setting [4]) of 707. This compound also displayed an EC50 in assay [2] of no more than 1 nM.
Regarding `Nc1nc2cc(F)c(C(=O)N3CCC[C@H]4OCc5cc(OC(F)F)ccc5[C@H]43)cc2n2cncc12` (single isomer, unassigned) [Ff-391], the 50% cytotoxic concentration (CC50) in assay [1] (cell viability assay) was less than 100 nM. For the same compound, the EC50 selectivity in assay [2] (setting [4]) was 26. Besides, the EC50 in assay [2] fell in the range of 1 to 5 nM.
With `Cc1ncn2c1c(N)nc1ccc(C(=O)N(C)[C@@H]3COCc4cc(Br)ccc43)cc12` [Fg-13, (S)-4-amino-N-(7-bromoisochroman-4-yl)-N,3-dimethylimidazo[1,5-a]quinoxaline-8-carboxamide], in assay [1] (cell viability assay), the CC50 is less than 100 nM. The compound further returned an EC50 selectivity in assay [2] (setting [4]) of 207. For the same compound, in assay [2], the EC50 is no more than 1 nM.
Regarding `Nc1nc2ccc(C(=O)N3CCC4(CC4)[C@@H]4Oc5cc(C(F)(F)F)ccc5[C@@H]43)cc2n2cncc12` [Ff-675, (4-aminoimidazo[1,5-a]quinoxalin-8-yl)((4aS,9bS)-7-(trifluoromethyl)-2,3,4a,9b-tetrahydro-1H-spiro[benzofuro[3,2-b]pyridine-4,1′-cyclopropan]-1-yl)methanone], the 50% cytotoxic concentration (CC50) in assay [1] (cell viability assay) is less than 100 nM. Also, the EC50 selectivity in assay [2] (setting [4]) came out at 107. For the same compound, the concentration giving a half-maximal response (EC50) in assay [2] was no more than 1 nM.
Turning to `Nc1nc2cc(Cl)c(C(=O)N3CCOC[C@@H]3c3ccc(C(F)(F)F)cc3)cc2n2cncc12` [Ff-289, (S)-(4-amino-7-chloroimidazo[1,5-a]quinoxalin-8-yl)(3-(4-(trifluoromethyl)phenyl)morpholino)methanone], the 50% cytotoxic concentration (CC50) in assay [1] (cell viability) is less than 100 nM. This compound also showed an EC50 selectivity in assay [2] (setting [3]) of 88. Besides, the EC50 in assay [2] is no more than 1 nM.
As to `Nc1nc2ccc(C(=O)N3C[C@H](F)CC4Oc5cc(OC(F)(F)F)ccc5C43)cc2n2cncc12` (mixture of isomers) [Fg-58, rac-(4-aminoimidazo[1,5-a]quinoxalin-8-yl)((3R,4aS,9bS)-3-fluoro-7-(trifluoromethoxy)-3,4,4a,9b-tetrahydrobenzofuro[3,2-b]pyridin-1(2H)-yl)methanone], the CC50 in assay [1] (cell viability assay) was less than 100 nM. The EC50 selectivity in assay [2] (setting [4]) is recorded as 345. In assay [2], the 50% effective concentration (EC50) was 1 to 5 nM.
As for `Cc1ncn2c1c(N)nc1cnc(C(=O)N3C[C@H](C)C[C@@H]4Oc5cc(OC(F)(F)F)ccc5[C@@H]43)cc12` [Ff-619, (4-amino-3-methylimidazo[1,5-a]pyrido[3,4-e]pyrazin-8-yl)((3R,4aS,9bS)-3-methyl-7-(trifluoromethoxy)-3,4,4a,9b-tetrahydrobenzofuro[3,2-b]pyridin-1(2H)-yl)methanone], the CC50 in assay [1] (cell viability assay) was less than 100 nM. The same compound came in with an EC50 selectivity in assay [2] (setting [4]) of 58. For the same compound, the EC50 in assay [2] fell in the range of 1 to 5 nM.
Regarding `C#Cc1cc2nc(N)c3cncn3c2cc1C(=O)N(C)[C@@H]1COc2cc(C(F)(F)F)ccc21` [Fg-49, (S)-4-amino-7-ethynyl-N-methyl-N-(6-(trifluoromethyl)-2,3-dihydrobenzofuran-3-yl)imidazo[1,5-a]quinoxaline-8-carboxamide], the half-maximal cytotoxic concentration (CC50) in assay [1] (cell viability assay) is less than 100 nM. In assay [2] (setting [4]), this compound showed an EC50 selectivity of 70. This compound had a half-maximal effective concentration (EC50) in assay [2] of no more than 1 nM.
The like results for `CCN(C(=O)c1ccc2nc(N)c3c(C)ncn3c2c1)[C@@H]1COc2cc(C(F)(F)F)ccc21` [Fg-6, (S)-4-amino-N-ethyl-3-methyl-N-(6-(trifluoromethyl)-2,3-dihydrobenzofuran-3-yl)imidazo[1,5-a]quinoxaline-8-carboxamide] were, in that order, less than 100 nM, 88 and 1 to 5 nM.
The like results for `Nc1nc2ccc(C(=O)N3C[C@H](F)C[C@@H]4Oc5cc(C(F)(F)F)ccc5[C@@H]43)cc2n2cncc12` (single isomer, unassigned) [Ff-681] were, in that order, less than 100 nM, 313 and no more than 1 nM.
With `Nc1nc2cc(F)c(C(=O)N3CCC[C@@H]4OCc5cc(OC(F)F)ccc5[C@@H]43)cc2n2cncc12` (single isomer, unassigned) [Ff-392], in assay [1] (cell viability assay), the CC50 was less than 100 nM. For the same compound, the EC50 selectivity in assay [2] (setting [4]) is on record as 68. This compound gave an EC50 in assay [2] of no more than 1 nM.
`C[C@H]1CN(C(=O)c2cc3c(cc2Cl)nc(N)c2cncn23)[C@@H](c2ccc(C(F)(F)F)cn2)CO1` [Ff-138, (4-amino-7-chloroimidazo[1,5-a]quinoxalin-8-yl)((2S,5S)-2-methyl-5-(5-(trifluoromethyl)pyridin-2-yl)morpholino)methanone]: the 50% cytotoxic concentration (CC50) in assay [1] (cell viability) was less than 100 nM. For the same compound, in assay [2] (setting [3]), the EC50 selectivity was 20. The EC50 in assay [2] is no more than 1 nM.
Take `Nc1nc2cnc(C(=O)N3CCC[C@@H]4Oc5cc(C(F)(F)F)ccc5[C@@H]43)cc2n2c(F)ncc12` (single isomer, unassigned) [Ff-625]: the CC50 in assay [1] (cell viability assay) fell in the range of 100 to 1000 nM. The EC50 selectivity in assay [2] (setting [4]) was 315. In addition, in assay [2], the concentration giving a half-maximal response (EC50) was greater than 5 nM.
The like results for `Nc1nc2ccc(C(=O)N(Cc3ccc(C(F)(F)F)cn3)C34CC(C3)C4)cc2c2cncn12` [Fg-15, 5-amino-N-(bicyclo[1.1.1]pentan-1-yl)-N-((5-(trifluoromethyl)pyridin-2-yl)methyl)imidazo[1,5-c]quinazoline-9-carboxamide] were, in that order, greater than 1000 nM, 8 and greater than 5 nM.
For `Cc1ncn2c1c(N)nc1ccc(C(=O)N3C[C@@H](C)O[C@@H]4Cc5cc(C(F)(F)F)ccc5[C@@H]43)cc12` [Fg-35, (4-amino-3-methylimidazo[1,5-a]quinoxalin-8-yl)((2R,4aS,9aR)-2-methyl-7-(trifluoromethyl)-2,3,9,9a-tetrahydroindeno[2,1-b][1,4]oxazin-4(4aH)-yl)methanone], the CC50 in assay [1] (cell viability assay) is less than 100 nM. In addition, the EC50 selectivity in assay [2] (setting [4]) is 151. The same compound showed an EC50 in assay [2] of 1 to 5 nM.
As to `Nc1nc2ccc(C(=O)N3C[C@@H](F)C[C@@H]4Oc5cc(OC(F)(F)F)ccc5[C@@H]43)cc2n2cncc12` [Ff-667, (4-aminoimidazo[1,5-a]quinoxalin-8-yl)((3S,4aS,9bS)-3-fluoro-7-(trifluoromethoxy)-3,4,4a,9b-tetrahydrobenzofuro[3,2-b]pyridin-1(2H)-yl)methanone], the CC50 in assay [1] (cell viability assay) is less than 100 nM. The EC50 selectivity in assay [2] (setting [4]) is given as 115. Also, the 50% effective concentration (EC50) in assay [2] was no more than 1 nM.
Take `Cc1ncn2c(N)nc3ccc(C(=O)N(C)[C@@H]4COc5cc(C(F)(F)F)ccc54)cc3c12` [Fg-11, (S)-5-amino-N,1-dimethyl-N-(6-(trifluoromethyl)-2,3-dihydrobenzofuran-3-yl)imidazo[1,5-c]quinazoline-9-carboxamide]: the cytotoxic concentration (CC50) in assay [1] (cell viability assay) was 100 to 1000 nM. Also, the EC50 selectivity in assay [2] (setting [4]) is on record as 225. The same compound gave a 50% effective concentration (EC50) in assay [2] greater than 5 nM.
As for `Nc1nc2cc(F)c(C(=O)N3CCC(c4ccc(C(F)(F)F)cc4F)C3)cc2n2cncc12` (stereo not drawn) [Ff-4, (4-amino-7-fluoroimidazo[1,5-a]quinoxalin-8-yl)(3-(2-fluoro-4-(trifluoromethyl)phenyl)pyrrolidin-1-yl)methanone], the CC50 in assay [1] (cell viability) was in the range of 100 to 1000 nM. Further, the EC50 selectivity in assay [2] (setting [3]) was 2956. Also, the EC50 in assay [2] is greater than 5 nM.

What is called CC50 is the concentration that lowers cell viability or growth by half. What is called EC50 is the midpoint of the concentration-response curve. Read a low EC50 as an effect from little substance.
